According to patent US20240358862A1, “Synthesis Method and Application of a Near-infrared Probe GGa-ICG specific binding to PSCA” (Guangzhou Shiyun Biotechnology Co., Ltd, priority 2022, published 2024):

Columns and labels:
[1] = Fluorescence stability detection; assay type: physicochemical; conditions: after excitation at 780 nm
Method: Stability testing was divided into two groups: 1) stability testing under excitation wavelength and 2) stability testing of GGa-ICG under visible light. Excitation wavelength of 780 nm (GGa-ICG, ssDNA-ICG, and ICG) and visible light were used to excite the fluorescence probe GGa-ICG. Fluorescence detection was performed, and the changes in fluorescence intensity were recorded using a fluorescence spectrophotometer.

[2] = system: prostate cancer lesions (PC-3 xenograft); assay: In vivo imaging in PC-3 mouse xenograft model; parameters: species or system BALB/c nude mice; conditions: intravenous injection, at 2, 4, and 8 hours
Method: Male BALB/c nude mice (BALB/c-nude) were purchased from Beijing SLAC Laboratory Animal Co., Ltd. Five-week-old nude mice were subcutaneously injected with 5×10^6 PC-3 cells on the back. The tumor was allowed to grow for 15 to 20 days until it reached a diameter of 0.5-1.5 cm. The BALB/c nude mice bearing tumors were anesthetized with sedatives and anesthetics. Once the mice were immobilized, a designated dose (0.1 mg, 0.5 mg, 1 mg, 2 mg per injection) of GGa-ICG or ssDNA-ICG was injected through the tail vein. At certain time points, fluorescent images of live mice were collected using the IVIS Lumina II in vivo imaging system. For ex vivo fluorescent experiments, tumor-bearing mice that were intravenously injected with GGa-ICG or ssDNA-ICG were euthanized by cervical dislocation 1 hour after injection under anesthesia. After dissection, organs including brain, liver, kidney, spleen, lung, heart, and tumor tissue were imaged using the IVIS Lumina II in vivo imaging system as described above.

SMILES: CC1(C)C(/C=C/C=C/C=C/C=C2\N(CCCCS(=O)(=O)O)c3ccc4ccccc4c3C2(C)C)=[N+](CCCCS(=O)(=O)[O-])c2ccc3ccccc3c21 [ICG, indocyanine green, reference compound]
- time after which fluorescence was extinguished [1]: 1 h
- binding to prostate cancer lesions in vivo [2]: specifically bound
